Key:
Aβ42 [1] = biological target: T1, Aβ42 (Homo sapiens, UniProt P05067); experiment: Thioflavin T (ThT) spectroscopic assay of Aβ42 aggregation; format: biochemical; details: 1, 5 and 10 μM HW-C-9; Aβ42 5 μM; 37° C.; FIG. 4
T1 construct: and 42 amino acids in length (Aβ42)
Experimental: (§1) The effect of HW-C-9 on Aβ42 was analyzed using the Thioflavin T (ThT) spectroscopic assay. Thioflavin T (ThT) is a benzothiazole salt obtained by the methylation of dehydrothiotoluidine with methanol in the presence of hydrochloric acid. ThT was used as a dye to visualize and quantify the presence or fibrilization of misfolded protein aggregates. Briefly, HW-C-9 in Tris Buffered Saline (TBS, pH 7.5) containing 10 μM ThT was added into a black 96 well plate. Aβ42 protein monomer was freshly thawed and used to make a stock 5 μM solution in TBS. An equal volume of Aβ42 solution was added to each well to a final concentration of 2.5 μM Aβ42 and incubated at 37° C. Time-dependent fluorescence change was monitored by a Synergy 2 plate reader at an excitation wavelength of 440 nm and emission at 482 nm. The fluorescence intensity of ThT was measured over time, as ThT changed fluorescence intensity upon binding to the Aβ42 protein aggregates. 100% aggregation was defined as the fluorescence change of 2.5 μM Aβ42 in TBS buffer containing 5 μM ThT after 24 hours.
In FIG. 4, C1 is 1 μM of HW-C-9, C3 is 5 μM of HW-C-9, and C4 is 10 μM of HW-C-9. Aβ42 was present in all samples at a concentration of 5 μM. The top curve (red line, “Agg”) is the Aβ42-only control.

[2] = tested on: recombinant human tau protein; experiment: ThT assay of tau protein aggregation; format: biochemical; details: 100, 50, 20, 10 and 1 μM HW-C-9; Tau 10 μM; FIG. 5
Experimental: as §1
The effect of HW-C-9 on recombinant human tau protein was analyzed using the ThT assay, as detailed in Example 2, but with tau protein in place of Aβ42. In FIG. 5, C1 is 100 μM of HW-C-9, C2 is 50 μM of HW-C-9, C3 is 20 μM of HW-C-9, C4 is 10 μM of HW-C-9, and C5 is 1 μM of HW-C-9. […]

Aβ42 [3] = biological target: T1, Aβ42; experiment: Western blot of Aβ42 aggregation; format: biochemical; details: 40 μM HW-C-9 and 20 μM Aβ; FIG. 6A
Experimental: (§2) Shown in FIG. 6A is a Western blot of Aβ42, wherein lane 1 is 20 μM of Aβ, lane 2 is 40 μM of HW-155-1 as a control and 20 μM of Aβ, and lane 3 is 40 μM of HW-C-9 and 20 μM of Aβ. Shown in FIG. 6B on the left is mouse brain tissue incubated overnight with and without 25 μM of HW-C-9, and then immunohistochemically stained with Aβ42 antibodies. On the right of FIG. 6B is a graphical quantification of the density and strength of the antibody stains.

[4] = tested on: Aβ42 amyloid plaques in mouse brain tissue; experiment: Mouse brain tissue incubated with compound, immunohistochemical staining with Aβ42 antibodies; details: mouse brain tissue incubated overnight with 25 μM HW-C-9; FIG. 6B
Experimental: as §2

[5] = biological target: human recombinant alpha-synuclein (Homo sapiens, UniProt P37840); experiment: Western blot of alpha-synuclein aggregation; format: biochemical; details: aggregated for 7 days in the presence of 25 μg/mL HW-C-9; FIG. 7
Experimental: The effect of HW-C-9 on synuclein was analyzed with a Western blot. Results are shown in FIG. 7, wherein lane 1 is human recombinant alpha-synuclein (stained with goat anti-human alpha-synuclein antibody) without aggregation as a control, lane 2 is human recombinant alpha-synuclein (stained with goat anti-human alpha-synuclein antibody) aggregated for 7 days, and lane 3 is human recombinant alpha-synuclein (stained with goat anti-human alpha-synuclein antibody) aggregated for 7 days in the presence of 25 μg/mL of HW-C-9.

T1 sequence (P05067 672-713 limits assumed): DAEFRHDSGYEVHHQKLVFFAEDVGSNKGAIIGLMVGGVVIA

C=CCOC(=O)N(CC(=O)N[C@@H](Cc1ccccc1)CN(CC(=O)N[C@@H](CCCCN)CN(CC(=O)N[C@@H](CC(C)C)CN(CC(=O)NCCCCCCCC(=O)NCCCC[C@H](NC(=O)CCCCCCCNC(=O)CN(C[C@H](CC(C)C)NC(=O)CN(C[C@H](CCCCN)NC(=O)CN(C[C@H](Cc1ccccc1)NC(=O)CN(C[C@@H](N)CCCCN)C(=O)OCC=C)C(=O)CCc1ccccc1)C(=O)CC(C)C)C(=O)CC(C)C)C(N)=O)C(=O)CC(C)C)C(=O)CC(C)C)C(=O)CCc1ccccc1)C[C@@H](N)CCCCN [HW-C-9]
inhibition of Aβ42 aggregation (ThT fluorescence) (Aβ42 [1]): can inhibit Aβ42 aggregation at all concentrations tested
inhibition of tau protein aggregation (ThT fluorescence) [2]: can inhibit aggregation of tau protein at all concentrations tested
inhibition of Aβ42 aggregation (Western blot) (Aβ42 [3]): can inhibit aggregation of Aβ42
removal of amyloid plaques (density and strength of Aβ42 antibody stains) [4]: remove amyloid plaques
inhibition of alpha-synuclein aggregation (Western blot) [5]: can inhibit aggregation of alpha-synuclein
